Reference: US20070049592A1, “Bis-aryl urea compounds and methods of use” (priority 2005, published 2007)
pIC50: −log10 of the molar value.

Columns and labels:
[1] = system: Human Umbilical Vein Endothelial cells; assay: HUVEC proliferation assay (VEGF); format: cell-based; settings: VEGF-stimulated HUVEC proliferation
Experimental: Human Umbilical Vein Endothelial cells are purchased from Clonetics, Inc., as cryopreserved cells harvested from a pool of donors. These cells, at passage 1, are thawed and expanded in EBM-2 complete medium, until passage 2 or 3. The cells are trypsinized, washed in DMEM+10% FBS+antibiotics, and spun at 1000 rpm for 10 min. Prior to centrifugation of the cells, a small amount is collected for a cell count. After centrifugation, the medium is discarded, and the cells are resuspended in the appropriate volume of DMEM+10% FBS+antibiotics to achieve a concentration of 3×10^5 cells/mL. Another cell count is performed to confirm the cell concentration. The cells are diluted to 3×10^4 cells/mL in DMEM+10% FBS+antibiotics, and 100 μL of cells are added to a 96-well plate. The cells are incubated at 37° C. for 22 h.
Prior to the completion of the incubation period, compound dilutions are prepared. Five-point, five-fold serial dilutions are prepared in DMSO, at concentrations 400-fold greater than the final concentrations desired. 2.5 μL of each compound dilution are diluted further in a total of 1 mL DMEM+10% FBS+antibiotics (400× dilution). Medium containing 0.25% DMSO is also prepared for the 0 μM compound sample. At the 22 h timepoint, the medium is removed from the cells, and 100 μL of each compound dilution is added. The cells are incubated at 37° C. for 2-3 h.
During the compound pre-incubation period, the growth factors are diluted to the appropriate concentrations. Solutions of DMEM+10% FBS+antibiotics, containing either VEGF or bFGF at the following concentrations: 50, 10, 2, 0.4, 0.08, and 0 ng/mL are prepared. For the compound-treated cells, solutions of VEGF at 550 ng/mL or bFGF at 220 ng/mL for 50 ng/mL or 20 ng/mL final concentrations, respectively, are prepared since 10 μL of each will be added to the cells (110 μL final volume). At the appropriate time after adding the compounds, the growth factors are added. VEGF is added to one set of plates, while bFGF is added to another set of plates. For the growth factor control curves, the media on wells B4-G6 of plates 1 and 2 are replaced with media containing VEGF or bFGF at the varying concentrations (50-0 ng/mL). The cells are incubated at 37° C. for an additional 72 h.
At the completion of the 72 h incubation period, the medium is removed, and the cells are washed twice with PBS. After the second wash with PBS, the plates are tapped gently to remove excess PBS, and the cells are placed at −70° C. for at least 30 min. The cells are thawed and analyzed using the CyQuant fluorescent dye (Molecular Probes C-7026), following the manufacturer's recommendations. The plates are read on a Victor/Wallac 1420 workstation at 485 nm/530 nm (excitation/emission). Raw data is collected and analyzed using a 4-parameter fit equation in XLFit. IC50 values are then determined.

[2] = system: production of TNF by monocytes activated with bacterial lipopolysaccharide (LPS); assay: Lipopolysaccharide-activated monocyte TNF production assay; format: cell-based; settings: Homo sapiens, as a determination of p38 activity, read-out: IC50 values in the monocyte assay (LPS induced TNF release)
Experimental: Test compounds were evaluated in vitro for the ability to inhibit the production of TNF by monocytes activated with bacterial lipopolysaccharide (LPS). Fresh residual source leukocytes (a byproduct of plateletpheresis) were obtained from a local blood bank, and peripheral blood mononuclear cells (PBMCs) were isolated by density gradient centrifugation on Ficol-Paque Plus (Pharmacia). PBMCs were suspended at 2×10^6/ml in DMEM supplemented to contain 2% FCS, 10 mM, 0.3 mg/ml […], 100 U/ml penicillin G and […] streptomycin sulfate (complete media). Cells were plated into Falcon flat bottom, 96 well culture plates (200 μl/well) and cultured overnight at 37° C. and 6% CO2. Non-adherent cells were removed by washing with 200 μl/well of fresh medium. Wells containing adherent cells (˜70% monocytes) were replenished with 100 μl of fresh medium.
Test compounds were dissolved in […]. Compound stock solutions were prepared to an initial concentration of […]. Stocks were diluted initially to 20-200 μM in complete media. Nine two-fold serial dilutions of each compound were then prepared in complete medium.
One hundred microliters of each test compound dilution were added to microtiter wells containing adherent monocytes and 100 μl complete medium. Monocytes were cultured with test compounds for 60 min at which time 25 μl of complete medium containing 30 ng/ml lipopolysaccharide from E. coli K532 were added to each well. Cells were cultured an additional 4 hrs. Culture supernatants were then removed and TNF presence in the supernatants was quantified using an ELISA.
Flat bottom, 96 well Corning High Binding ELISA plates were coated overnight (4° C.) with 150 μL/well of 3 μg/ml murine anti-human TNF-α MAb (R&D Systems #MAB210). Wells were then blocked for 1 hr at room temperature with 200 μL/well of CaCl2-free ELISA buffer supplemented to contain 20 mg/ml BSA (standard ELISA buffer: […], 150 mM NaCl, 2 mM CaCl2, 0.15 mM thimerosal, pH 7.4). Plates were washed and replenished with 100 μl of test supernatants (diluted 1:3) or standards. Standards consisted of eleven 1.5-fold serial dilutions from a stock of 1 ng/ml recombinant human TNF (R&D Systems). Plates were incubated at room temperature for 1 hr on orbital shaker (300 rpm), washed and replenished with 100 μl/well of 0.5 μg/ml goat anti-human TNF-α (R&D systems #AB-210-NA) biotinylated at a 4:1 ratio. Plates were incubated for 40 min, washed and replenished with 100 μl/well of alkaline phosphatase-conjugated streptavidin (Jackson ImmunoResearch #016-050-084) at 0.02 μg/ml. Plates were incubated 30 min, washed and replenished with 200 μl/well of 1 mg/ml of p-nitrophenyl phosphate. After 30 min, plates were read at 405 nm on a Vmax plate reader.
Standard curve data were fit to a second order polynomial and unknown TNF-α concentrations determined from their OD by solving this equation for concentration. TNF concentrations were then plotted vs. test compound concentration using a second order polynomial. This equation was then used to calculate the concentration of test compounds causing a 50% reduction in TNF production.

Compound	pIC50 [1]	pIC50 [2]
CNc1cc(N(C)C(=O)Nc2cc(C(=O)Nc3ccc4ccccc4c3)ccc2C)ncn1 [Example 23, 4-methyl-3-(((methyl(6-(methylamino)-4-pyrimidinyl)amino)carbonyl)amino)-N-(2-naphthalenyl) benzamide]	> 5.30	≥ 5.30
CNc1cc(N(C)C(=O)Nc2cc(C(=O)Nc3cccc(C(F)(F)F)c3)ccc2C)ncn1 [Example 16, ′4-methyl-3-(((methyl(6-(methylamino)-4-pyrimidinyl)amino)carbonyl)amino)-N-(3-(trifluoromethyl)phenyl) benzamide]	> 5.30	≥ 5.30
CNc1cc(N(C)C(=O)Nc2cc(C(=O)Nc3cccc(C(F)(F)F)c3F)ccc2C)ncn1 [Example 24, N-(2-fluoro-3-(trifluoromethyl)phenyl)-4-methyl-3-((methyl(6-(methylamino)-4-pyrimidinyl)amino)carbonylamino)benzamide]	> 5.30	≥ 5.30
CNc1cc(N(C)C(=O)Nc2cc(C(=O)Nc3cc(OC)cc(C(F)(F)F)c3)ccc2C)ncn1 [Example 18, 4-methyl-3-(((methyl(6-(methylamino)-4-pyrimidinyl)amino)carbonyl)amino)-N-(3-(methyloxy)-5-(trifluoromethyl)phenyl) benzamide]	> 5.30	≥ 5.30
CNc1cc(N(C)C(=O)Nc2cc(C(=O)Nc3cccc(-c4ccccc4)c3)ccc2C)ncn1 [Example 31, N-(1,1′-biphenyl-3-yl)-4-methyl-3-(((methyl(6-(methylamino)-4-pyrimidinyl)amino)carbonyl)amino)benzamide]	> 5.30	≥ 5.30
CNc1cc(N(C)C(=O)Nc2cc(C(=O)Nc3cccc(C(F)(F)F)c3C)ccc2C)ncn1 [Example 20, 4-methyl-3-(((methyl(6-(methylamino)-4-pyrimidinyl)amino)carbonyl)amino)-N-(2-methyl-3-(trifluoromethyl)phenyl)benzamide]	> 5.30	≥ 5.30
CNc1ncnc(N(C)C(=O)Nc2cc(C(=O)Nc3ccc4ccccc4c3)ccc2C)n1 [Example 30, 4-methyl-3-(((methyl(4-(methylamino)-1,3,5-triazin-2-yl)amino)carbonyl)amino)-N-(2-naphthalenyl) benzamide]	> 5.30	≥ 5.30
CNc1cc(N(C)C(=O)Nc2cc(C(=O)Nc3ccc(C(F)(F)F)cc3)ccc2C)ncn1 [Example 32, 4-methyl-3-(((methyl(6-(methylamino)-4-pyrimidinyl)amino)carbonyl)amino)-N-(4-(trifluoromethyl)phenyl)benzamide]	> 5.30	≥ 5.30
CNc1cc(N(C)C(=O)Nc2cc(C(=O)Nc3cccc(C(C)C)c3)ccc2C)ncn1 [Example 17, 4-methyl-N-(3-(1-methylethyl)phenyl)-3-(((methyl(6-(methylamino)-4-pyrimidinyl)amino)carbonyl)amino) benzamide]	> 5.30	≥ 5.30
CNc1cc(N(C)C(=O)Nc2cc(C(=O)Nc3ccc(C(C)(C)C)cc3)ccc2C)ncn1 [Example 25]	> 5.30	≥ 5.30
